Laboratory results taken from patent US7888386B2, “3-(phenoxyphenylmethyl)pyrrolidine compounds” (Theravance, Inc., priority 2008, dated 2011).
Where two headings read alike, the source gives them in different places.

Tests used:
hSERT = target: T1, hSERT (Homo sapiens, UniProt P31645); test: hSERT binding assay (Assay 1)
T1 construct: expressed in transfected cells; host or cells: HEK-293 derived cell line, stably transfected; membrane preparation
Method: (§1) Membrane radioligand binding assays were used to measure competitive inhibition of labeled ligand (^3H-citalopram or ^3H-nisoxetine or ^3H-WIN35428) binding to membranes prepared from cells expressing the respective human recombinant transporter (hSERT or hNET or hDAT) in order to determine the pKi values of test compounds at the transporters.
(§2) Recombinant human embryonic kidney (HEK-293) derived cell lines stably transfected with hSERT or hNET, respectively, were grown in DMEM medium supplemented with 10% dialyzed FBS (for hSERT) or FBS (for hNET), 100 μg/ml penicillin, 100 μg/ml streptomycin, 2 mM L-glutamine and 250 μg/ml of the aminoglycoside antibiotic G418, in a 5% CO2 humidified incubator at 37° C. When cultures reached 80% confluence, the cells were washed thoroughly in PBS (without Ca^2+ and Mg^2+) and lifted with 5 mM EDTA in PBS. Cells were pelleted by centrifugation, resuspended in lysis buffer (10 mM Tris-HCl, pH 7.5 containing 1 mM EDTA), homogenized, pelleted by centrifugation, then resuspended in 50 mM Tris-HCl, pH 7.5 and 10% sucrose at 4° C. Protein concentration of the membrane suspension was determined using a Bio-Rad Bradford Protein Assay kit. Membranes were snap frozen and stored at −80° C. Chinese hamster ovary membranes expressing hDAT (CHO-DAT) were purchased from PerkinElmer and stored at −80° C.
(§3) Stock solutions (10 mM in DMSO) of test compound were prepared and serial dilutions made using Dilution Buffer (50 mM Tris-HCl, 120 mM NaCl, 5 mM KCl, pH 7.4, 0.1% BSA, 400 μM ascorbic acid).
(§4) Following a 60 minute incubation at 22° C. (or a period sufficient to reach equilibrium), the membranes were harvested by rapid filtration over a 96-well UniFilter GF/B plate, pretreated with 0.3% polyethyleneimine, and washed 6 times with 300 μl wash buffer (50 mM Tris-HCl, 0.9% NaCl, pH 7.5 at 4° C.). Plates were dried overnight at room temperature, ˜45 μl of MicroScint™-20 (Perkin Elmer) added and bound radioactivity quantitated via liquid scintillation spectroscopy. Competitive inhibition curves and saturation isotherms were analyzed using GraphPad Prism Software package (GraphPad Software, Inc., San Diego, Calif.). IC50 values were generated from concentration response curves using the Sigmoidal Dose Response (variable slope) algorithm in Prism GraphPad.

hNET = target: T2, hNET (Homo sapiens, UniProt P23975); test: hNET binding assay (Assay 1); details: read-out: NET pKi (converted)
T2 construct: expressed in transfected cells; host or cells: HEK-293 derived cell line, stably transfected; membrane preparation
Method: as §1, §2, §3, §4

[1] = ratio of SERT Ki to NET Ki (binding)
[2] = ratio of binding Ki at hSERT to Ki at hNET, rounded off to the nearest tenth
[3] = membranes of HEK-293 cells expressing hNET, 1.0 nM 3H-nisoxetine
[4] = ratio of SERT Ki to NET Ki from binding assays

T2 sequence (P23975 whole entry): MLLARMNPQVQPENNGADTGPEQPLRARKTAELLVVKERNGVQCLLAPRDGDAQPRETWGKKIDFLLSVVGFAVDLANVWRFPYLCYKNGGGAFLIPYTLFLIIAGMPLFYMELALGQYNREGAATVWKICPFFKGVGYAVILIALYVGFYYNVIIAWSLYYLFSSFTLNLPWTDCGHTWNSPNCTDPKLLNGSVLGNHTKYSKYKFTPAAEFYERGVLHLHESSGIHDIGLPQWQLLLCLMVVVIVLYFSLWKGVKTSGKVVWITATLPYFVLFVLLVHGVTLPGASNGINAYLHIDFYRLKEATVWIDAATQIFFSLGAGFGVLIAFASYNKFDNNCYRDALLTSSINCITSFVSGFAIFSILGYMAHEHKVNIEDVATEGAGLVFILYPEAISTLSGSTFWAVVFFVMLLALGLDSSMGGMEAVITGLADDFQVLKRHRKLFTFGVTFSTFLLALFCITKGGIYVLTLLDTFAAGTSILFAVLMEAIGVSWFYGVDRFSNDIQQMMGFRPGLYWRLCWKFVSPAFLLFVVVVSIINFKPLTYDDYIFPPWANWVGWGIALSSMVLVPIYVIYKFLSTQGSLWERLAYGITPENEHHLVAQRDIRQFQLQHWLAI
T1 sequence (P31645 whole entry): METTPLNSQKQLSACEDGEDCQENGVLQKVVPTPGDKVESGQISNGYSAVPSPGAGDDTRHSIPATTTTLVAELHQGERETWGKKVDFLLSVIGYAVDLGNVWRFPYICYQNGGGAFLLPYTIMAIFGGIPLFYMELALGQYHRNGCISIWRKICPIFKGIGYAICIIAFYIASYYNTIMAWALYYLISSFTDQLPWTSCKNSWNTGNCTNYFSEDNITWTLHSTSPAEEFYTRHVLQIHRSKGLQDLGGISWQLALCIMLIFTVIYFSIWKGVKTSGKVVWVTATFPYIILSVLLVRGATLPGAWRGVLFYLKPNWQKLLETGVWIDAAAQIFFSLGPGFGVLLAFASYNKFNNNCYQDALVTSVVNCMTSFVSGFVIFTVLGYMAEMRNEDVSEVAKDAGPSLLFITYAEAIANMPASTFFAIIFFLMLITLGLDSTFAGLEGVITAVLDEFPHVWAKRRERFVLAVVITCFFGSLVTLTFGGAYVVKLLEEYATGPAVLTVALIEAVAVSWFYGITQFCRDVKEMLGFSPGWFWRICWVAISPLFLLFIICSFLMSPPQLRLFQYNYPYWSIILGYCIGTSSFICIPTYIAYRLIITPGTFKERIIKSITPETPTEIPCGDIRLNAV

Row | Compound | SERT Ki/NET Ki (hSERT; [4]) | Ki (hNET; hNET binding assay) [nM] | further results
1 | Cc1ccc(Cl)c(O[C@@H](c2cc(F)cc(F)c2)[C@@H]2CCNC2)c1Cl (racemic) [41-25] |  |  | SERT Ki/NET Ki (hSERT; [1]): 0.2; Ki (hNET; hNET binding): 6.31 nM
2 | Cc1ccc(Cl)c(OC(c2cc(F)cc(F)c2)C2CCNC2)c1Cl (racemic) [41-26] |  |  | SERT Ki/NET Ki (hSERT; [1]): 1.3; Ki (hNET; hNET binding): 0.501 nM
3 | Cc1cccc([C@@H](Oc2ccccc2Cl)[C@@H]2CCNC2)c1 (racemic) [Compound 20-6] |  |  | SERT Ki/NET Ki (hSERT; [2]): 1.6; Ki (hNET; [3]): 3.98 nM
4 | COc1ccccc1O[C@H](c1cccc(Cl)c1)[C@@H]1CCNC1 (racemic) [Compound 20-20] |  |  | SERT Ki/NET Ki (hSERT; [2]): 13; Ki (hNET; [3]): 2.51 nM
5 | COc1ccccc1O[C@@H](c1cc(F)cc(F)c1)[C@@H]1CCNC1 (racemic) [Compound 20-31] |  |  | SERT Ki/NET Ki (hSERT; [2]): 6.3; Ki (hNET; [3]): 5.01 nM
6 | COc1ccccc1OC(c1cc(F)cc(F)c1)C1CCNC1 (racemic) [Compound 20-32] |  |  | SERT Ki/NET Ki (hSERT; [2]): 10; Ki (hNET; [3]): 0.794 nM
7 | COc1ccccc1O[C@@H](c1cc(C)cc(F)c1)[C@H]1CCNC1 (racemic) [Compound 20-36] |  |  | SERT Ki/NET Ki (hSERT; [2]): 7.9; Ki (hNET; [3]): 1.26 nM
8 | COc1ccccc1O[C@@H](c1cc(C)cc(F)c1)[C@@H]1CCNC1 (racemic) [Compound 20-37] |  |  | SERT Ki/NET Ki (hSERT; [2]): 13; Ki (hNET; [3]): 6.31 nM
9 | Fc1ccc(Oc2cccc(O[C@H](c3ccccc3)[C@@H]3CCNC3)c2)cc1 (racemic) [Compound 21-15] |  |  | SERT Ki/NET Ki (hSERT; [2]): 1; Ki (hNET; [3]): 2 nM
10 | Cc1c(F)cccc1OC(c1ccccc1)C1CCNC1 (racemic) [Compound 25-17] |  |  | SERT Ki/NET Ki (hSERT; [2]): 0.2; Ki (hNET; [3]): 2.51 nM
11 | CC(=O)c1ccccc1O[C@H](c1ccccc1)[C@@H]1CCNC1 (stereo in doubt) [Ex. 9-3, 1-[2-((R)-phenyl-(S)-pyrrolidin-3-yl-methoxy)phenyl]ethanone] |  |  | SERT Ki/NET Ki (hSERT; [2]): 50; Ki (hNET; [3]): 3.16 nM
12 | Cc1ccc(OC(c2ccccc2)C2CCNC2)c(Cl)c1 (centres unmarked) [27-10] | 0.8 | 0.631 | 
13 | Cc1cc(F)ccc1OC(c1ccccc1)C1CCNC1 (centres unmarked) [27-13] | 0.3 | 3.16 | 
14 | Cc1cc(F)ccc1O[C@@H](c1ccccc1)[C@H]1CCNC1 [27-14] | 0.3 | 2 | 
15 | CCc1cc(F)ccc1OC(c1ccccc1)C1CCNC1 (centres unmarked) [27-23] | 0.8 | 1 | 
16 | COc1cc(F)ccc1OC(c1ccccc1)C1CCNC1 (centres unmarked) [27-25] | 4.6 | 0.794 | 
17 | COC(=O)c1cc(Cl)ccc1OC(c1ccccc1)C1CCNC1 (centres unmarked) [27-34] | 4 | 2.51 | 
18 | CCOC(=O)c1cc(Cl)ccc1O[C@@H](c1ccccc1)[C@H]1CCNC1 [27-36] | 0.6 | 3.98 | 
19 | N#Cc1cccc([C@H](Oc2ccc(Cl)cc2F)[C@H]2CCNC2)c1 [28-3] | 0.5 | 6.31 | 
20 | Fc1cc(F)cc(C(Oc2ccc(Cl)cc2F)C2CCNC2)c1 (centres unmarked) [28-9] | 0.3 | 3.16 | 
21 | Fc1cc(Cl)cc(C(Oc2ccc(Cl)cc2F)C2CCNC2)c1 (centres unmarked) [28-11] | 0.8 | 2.51 | 
22 | Cc1cc(F)cc(C(Oc2ccc(Cl)cc2F)C2CCNC2)c1 (centres unmarked) [28-13] | 0.5 | 5.01 | 
23 | CCc1cc(F)ccc1OC(c1cc(F)cc(F)c1)C1CCNC1 (centres unmarked) [28-14] | 3.2 | 1.58 | 

Row | Compound | SERT Ki/NET Ki (hSERT; [4]) | Ki (hNET; hNET binding assay) [nM] | further results
24 | COc1cc(F)ccc1OC(c1cc(F)cc(F)c1)C1CCNC1 (centres unmarked) [28-17] | 25 | 0.398 | 
25 | COc1cc(Cl)ccc1O[C@@H](c1cc(F)cc(F)c1)[C@H]1CCNC1 [28-19] | 0.8 | 1 | 
26 | Fc1ccc(F)c(O[C@@H](c2ccccc2)[C@H]2CCNC2)c1 [29-2] | 32 | 1.26 | 
27 | Fc1ccc(F)c(O[C@H](c2ccccc2)[C@@H]2CCNC2)c1 [29-3] | 0.5 | 7.94 | 
28 | Fc1ccc(Cl)cc1OC(c1ccccc1)C1CCNC1 (centres unmarked) [29-4] | 1.6 | 1.26 | 
29 | Fc1ccc(Cl)cc1O[C@@H](c1ccccc1)[C@H]1CCNC1 [29-5] | 16 | 0.501 | 
30 | Fc1ccc(Cl)cc1O[C@H](c1ccccc1)[C@@H]1CCNC1 [29-6] | 0.3 | 3.98 | 
31 | Fc1ccc(Br)cc1OC(c1ccccc1)C1CCNC1 (centres unmarked) [29-7] | 1.6 | 0.794 | 
32 | Cc1ccc(F)c(OC(c2ccccc2)C2CCNC2)c1 (centres unmarked) [29-8] | 3.2 | 1.58 | 
33 | Cc1ccc(F)c(O[C@@H](c2ccccc2)[C@H]2CCNC2)c1 [29-9] | 10 | 1.26 | 
34 | Clc1ccc(Cl)c(OC(c2ccccc2)C2CCNC2)c1 (centres unmarked) [29-11] | 0.2 | 3.98 | 
35 | Fc1ccc(Cl)c(OC(c2ccccc2)C2CCNC2)c1 (centres unmarked) [29-12] | 2 | 1.58 | 
36 | Cc1ccc(F)cc1OC(c1ccccc1)C1CCNC1 (centres unmarked) [29-15] | 1.3 | 3.98 | 
37 | Cc1ccc(F)cc1OC(c1ccccc1)C1CCNC1 (centres unmarked) [29-16] | 7.9 | 1.58 | 
38 | COc1ccc(Cl)cc1OC(c1ccccc1)C1CCNC1 (centres unmarked) [29-21] | 1 | 3.16 | 
39 | COc1ccc(Cl)cc1OC(c1ccccc1)C1CCNC1 (centres unmarked) [29-22] | 2.5 | 2.51 | 
40 | COc1ccc(F)cc1O[C@@H](c1ccccc1)[C@H]1CCNC1 [29-24] | 34 | 1 | 
41 | COc1ccc(F)cc1O[C@H](c1ccccc1)[C@@H]1CCNC1 [29-25] | 0.3 | 7.94 | 
42 | Fc1cc(F)cc(C(Oc2cc(Cl)ccc2F)C2CCNC2)c1 (centres unmarked) [30-1] | 3.2 | 1.26 | 
43 | Fc1cc(F)cc(C(Oc2cc(Cl)ccc2F)C2CCNC2)c1 (centres unmarked) [30-2] | 25 | 0.794 | 
44 | Fc1cc(F)cc(C(Oc2cc(Cl)ccc2Cl)C2CCNC2)c1 (centres unmarked) [30-3] | 0.3 | 3.98 | 
45 | Fc1cc(F)cc([C@H](Oc2cc(Cl)ccc2Cl)[C@H]2CCNC2)c1 [30-4] | 2.5 | 3.16 | 
46 | COc1ccc(F)cc1O[C@@H](c1cc(F)cc(F)c1)[C@H]1CCNC1 [30-5] | 79 | 0.501 | 
